From paper PMC4563558, “Discovery of a series of novel phenylpiperazine derivatives as EGFR TK inhibitors” (Scientific Reports, 2015)

What was measured:
MCF-7 = assay: MTT antiproliferation assay, MCF-7; format: cell-based; settings: Homo sapiens, MCF7, 72 h exposure, read-out: IC50 ± SD, MCF-7
Protocol: (§1) To test the antiproliferative activities of the synthesized compounds (see supplementary Scheme S1 and S2), the target compounds were evaluated in vitro antiproliferation assays against three human cancer cell lines (MCF-7, HeLa and A549) and one human normal lung cell line.
(§2) The in vitro anticancer activities of the prepared compounds against MCF-7, HeLa and A549 cell lines were evaluated as described in the literature[23] with some modifications. Target tumor cells were grown to log phase in DMEM medium supplemented with 10% fetal bovine serum. After reaching a dilution of 1 × 10^5 cells mL^−1 with the medium, 100 μL of the obtained cell suspension was added to each well of 96-well culture plates. Subsequently, incubation was performed at 37 °C in 5% CO2 atmosphere for 48 h before the cytotoxicity assessment. Tested samples at preset concentrations were added to 6 wells with Erlotinib being employed as a positive reference. After 72 h exposure period, 25 μL of PBS containing 2.5 mg mL^−1 of MTT was added to each well. After 4 h, the medium was replaced by 150 μL DMSO to dissolve the purple formazan crystals produced. The absorbance at 570 nm of each well was measured with an ELISA plate reader. The data represented the mean of three independent experiments in triplicate and were expressed as means ± SD. The IC50 value was defined as the concentration at which 50% of the cells could survive.

HeLa = assay: MTT antiproliferation assay, HeLa; format: cell-based; settings: Homo sapiens, 72 h exposure, read-out: IC50 ± SD, HeLa
Protocol: as §1, §2

A549 = assay: MTT antiproliferation assay, A549; format: cell-based; settings: Homo sapiens, 72 h exposure, read-out: IC50 ± SD, A549
Protocol: as §1, §2

Lung cells = assay: MTT assay, human normal lung cell line; format: cell-based; settings: read-out: IC50 ± SD, Lung cells
Protocol: as §1, §2

EGFR = target: T1, EGFR (Homo sapiens, UniProt P00533); assay: Kinase selectivity assay (kit), EGFR; format: biochemical; settings: read-out: Inhibition of EGFR IC50
T1 construct: purchased Bio-Swamp
T1 sequence (P00533 25-1210): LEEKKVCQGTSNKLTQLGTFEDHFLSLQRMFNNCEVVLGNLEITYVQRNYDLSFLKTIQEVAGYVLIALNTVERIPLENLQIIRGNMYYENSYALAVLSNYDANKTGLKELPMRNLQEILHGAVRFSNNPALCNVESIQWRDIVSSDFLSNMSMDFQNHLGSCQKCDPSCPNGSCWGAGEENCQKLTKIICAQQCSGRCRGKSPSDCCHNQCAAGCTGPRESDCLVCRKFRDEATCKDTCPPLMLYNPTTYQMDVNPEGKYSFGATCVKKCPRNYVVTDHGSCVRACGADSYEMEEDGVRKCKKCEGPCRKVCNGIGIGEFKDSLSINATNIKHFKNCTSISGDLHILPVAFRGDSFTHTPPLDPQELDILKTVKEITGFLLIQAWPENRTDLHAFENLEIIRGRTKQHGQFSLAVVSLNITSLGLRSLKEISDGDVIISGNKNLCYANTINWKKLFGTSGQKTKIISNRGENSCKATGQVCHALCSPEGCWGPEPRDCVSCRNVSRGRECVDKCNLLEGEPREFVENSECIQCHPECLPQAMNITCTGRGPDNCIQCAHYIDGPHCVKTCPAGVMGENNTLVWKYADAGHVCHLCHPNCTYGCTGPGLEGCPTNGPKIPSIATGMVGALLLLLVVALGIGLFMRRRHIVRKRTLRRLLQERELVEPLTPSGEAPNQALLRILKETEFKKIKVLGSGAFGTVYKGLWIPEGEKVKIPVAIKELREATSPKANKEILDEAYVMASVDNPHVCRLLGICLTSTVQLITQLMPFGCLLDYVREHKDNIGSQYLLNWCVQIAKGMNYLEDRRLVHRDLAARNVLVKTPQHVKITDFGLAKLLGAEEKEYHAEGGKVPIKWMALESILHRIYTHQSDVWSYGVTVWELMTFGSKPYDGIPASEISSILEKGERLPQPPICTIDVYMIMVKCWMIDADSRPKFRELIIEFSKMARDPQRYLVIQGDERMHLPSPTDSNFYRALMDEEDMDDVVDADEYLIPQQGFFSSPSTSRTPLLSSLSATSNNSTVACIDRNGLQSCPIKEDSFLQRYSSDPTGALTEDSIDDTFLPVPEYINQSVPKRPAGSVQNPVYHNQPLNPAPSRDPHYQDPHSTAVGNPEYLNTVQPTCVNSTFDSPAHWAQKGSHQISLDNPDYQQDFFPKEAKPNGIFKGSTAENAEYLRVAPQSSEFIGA
Protocol: (§3) The EGFR, VEGFR2, bFGF and PDGFR Kinase Assay Kit were purchased from Bio-Swamp. The experiments were performed according to the manufacturer’s instructions.

VEGFR2 = target: T2, VEGFR2 (Homo sapiens, UniProt P35968); assay: Kinase selectivity assay (kit), VEGFR2; format: biochemical; settings: read-out: Inhibition of VEGFR2 IC50
T2 construct: purchased Bio-Swamp
T2 sequence (P35968 20-1356, species assumed): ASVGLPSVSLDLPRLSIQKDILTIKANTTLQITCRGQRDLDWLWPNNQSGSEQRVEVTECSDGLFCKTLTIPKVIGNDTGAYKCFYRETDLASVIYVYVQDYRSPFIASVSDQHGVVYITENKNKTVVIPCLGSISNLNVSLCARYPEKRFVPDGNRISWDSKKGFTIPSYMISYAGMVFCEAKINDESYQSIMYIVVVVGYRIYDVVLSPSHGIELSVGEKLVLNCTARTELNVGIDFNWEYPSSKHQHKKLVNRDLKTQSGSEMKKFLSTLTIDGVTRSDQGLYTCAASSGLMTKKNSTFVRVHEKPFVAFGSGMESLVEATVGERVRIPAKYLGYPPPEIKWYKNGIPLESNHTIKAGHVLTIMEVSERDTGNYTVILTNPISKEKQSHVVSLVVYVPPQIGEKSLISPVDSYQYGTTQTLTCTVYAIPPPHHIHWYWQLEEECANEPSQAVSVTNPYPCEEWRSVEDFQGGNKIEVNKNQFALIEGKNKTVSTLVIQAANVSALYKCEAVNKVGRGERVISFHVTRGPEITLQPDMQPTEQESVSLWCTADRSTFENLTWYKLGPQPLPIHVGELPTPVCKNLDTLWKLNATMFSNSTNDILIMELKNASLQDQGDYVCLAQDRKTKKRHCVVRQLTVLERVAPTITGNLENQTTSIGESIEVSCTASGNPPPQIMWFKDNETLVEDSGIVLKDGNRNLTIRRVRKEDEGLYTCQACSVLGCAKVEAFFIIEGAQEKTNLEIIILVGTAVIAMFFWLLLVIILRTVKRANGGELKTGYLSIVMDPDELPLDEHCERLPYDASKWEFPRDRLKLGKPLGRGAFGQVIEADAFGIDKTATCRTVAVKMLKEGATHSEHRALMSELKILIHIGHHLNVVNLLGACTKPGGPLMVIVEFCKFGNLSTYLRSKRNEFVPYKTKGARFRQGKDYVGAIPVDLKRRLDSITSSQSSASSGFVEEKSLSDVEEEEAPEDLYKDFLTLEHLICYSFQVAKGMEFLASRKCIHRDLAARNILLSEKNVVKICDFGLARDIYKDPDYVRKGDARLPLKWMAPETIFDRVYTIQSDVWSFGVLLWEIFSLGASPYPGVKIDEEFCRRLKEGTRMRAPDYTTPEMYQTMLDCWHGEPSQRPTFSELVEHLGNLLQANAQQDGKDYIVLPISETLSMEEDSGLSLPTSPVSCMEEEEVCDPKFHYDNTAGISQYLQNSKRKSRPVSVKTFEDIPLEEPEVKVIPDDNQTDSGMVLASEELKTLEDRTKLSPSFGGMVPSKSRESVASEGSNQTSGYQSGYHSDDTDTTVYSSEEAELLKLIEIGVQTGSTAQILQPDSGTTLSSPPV
Protocol: (§4) To validate whether the above anti-proliferative effect was produced by interaction of EGFR protein and the synthesized compounds, the synthesized compounds were evaluated for their abilities to inhibit the activity of four protein kinases relevant to cancer: EGFR, VEGFR2, bFGF, PDGFR. […] Additionally, the activity data inferred that the IC50 values of these compounds shared a similar tendency with their relevant IC50 values of anti-proliferative assay. […] Therefore, we could conclude that the synthesized inhibitors can inhibit the function of EGFR and the anti-proliferative effect was produced partly by interaction of EGFR protein and the compounds.
as §3

bFGF = assay: Kinase selectivity assay (kit), bFGF; format: biochemical; settings: read-out: Inhibition of bFGF IC50
Protocol: as §4, §3

PDGFR = assay: Kinase selectivity assay (kit), PDGFR; format: biochemical; settings: read-out: Inhibition of PDGFR IC50
Protocol: as §4, §3

Erythrocytes = assay: Hemolysis test; format: cell-based; settings: human erythrocytes, 3 h incubation
Protocol: Hemolytic activity was assayed using fresh capillary human blood. Erythrocytes were collected by centrifuging the blood three times in chilled phosphate buffered saline (PBS at 4 °C) at 1000 × g for 10 min. The final pellet was resuspended in PBS to give a 2% w/v solution. Using a microtitre plate, 100 μL of the erythrocyte solution was added to dextran, PLL, stearyl-PLL or stearyl-PLL+LDL (1–1000/μg/mL) in a volume of […]. Samples were then incubated for 3 h and the microtitre plate was centrifuged then at 1000 × g for 10 min and the supernatants (100 μL) transferred into a new microtitre plate. Hemoglobin release was determined spectrophotometrically using a microtitre plate reader (absorbance at 550 nm). Results were expressed as the amount of released hemoglobin induced by the compounds as a percentage of the total. Hemolysis test was tested according to the guide of biological evaluation of medical device (SFDA, China).

in vitro = format: cell-based; settings: mouse
Protocol: The cytotoxic activity in vitro was measured against mouse fibroblast NIH-3T3 cells using the MTT assay. Cells were cultured in a 96-well plate at a density of 5 × 10^5 cells and different concentrations of compounds were respectively added to each well. The incubation was permitted at 37 °C, 5% CO2 atmosphere for 24 h before the cytotoxicity assessments. 20 μL MTT reagent (4 mg/mL) was added per well 4 h before the end of the incubation. Four hours later, the plate was centrifuged at 1200 rcf for 5 min and the supernatants were removed, each well was added with 200 μL DMSO. The absorbance was measured at a wavelength of 490 nm (OD 490 nm) on an ELISA microplate reader. Three replicate wells were used for each concentration and each assay was measured three times, after which the average of IC50 was calculated.

[1] = Acute oral toxicity, bodyweights; format: in vivo; settings: mice
Protocol: Before the acute toxicity experiment, mice were stopped being served food but water was kept for 3 h. The test substances were dissolved in maize germ oil[24]. The preliminary experiment was performed as follows: Four dose levels, 100, 500, 2000, and 5000 mg/kg body weight and three mice for each level were used. We observed the death and evident toxicity in 7 days to determine the general concentration range. Then the administration doses were graded with geometric progression for ease of the calculation of LD50. Mice were randomly divided into groups (10 mice/group). […] The control groups received maize germ oil only. After the administration, food was withheld for 2 h.

A549 cells = assay: Tumor volume in nude mice inoculated with A549 cells; format: in vivo; settings: for Test/Control (tumor volume): 40 mg/kg/2 days
Protocol: To further evaluate the antitumor effect of compound 3p in vivo, we performed an animal study. Mice were inoculated subcutaneously with A549 cells (5.0 × 10^6) on their shoulders. […]. […] […].
Male BALB/c nude mice, 35–40 days old and weighing 18–22 g, were supplied by Shanghai Laboratory Animal Limited Company. The mice were raised in air-conditioned rooms under controlled lighting (12 h lighting/day) and were fed with standard laboratory food and water ad libitum. Before injection into the mice, the lung cancer cells (A549) were harvested by trypsinization and washed three times with cold serum-free medium and then injected in a total volume of 0.1 mL using a 1-mL latex-free syringe (BD) within 30 min of harvest. Mice were inoculated subcutaneously with A549 cells (5.0 × 10^6) on their shoulders. When the tumor had increased to 100 mm^3 , the mice were equally randomized into 4 groups (with 6 mice/group): saline tumor control group; compound 3p 20 mg/kg/2 days group; compound 3p 40 mg/kg/2 days group; […]. The control group received 0.9% normal saline. Tumor size was measured once every 2 days in two per-pendicular dimensions with Vernier calipers and converted to tumor volume (TV) using the formula: (ab^2)/2, where a and b refer to the longer and shorter dimensions, respectively. The body weight of the animals was measured twice a week at the same time as the tumor dimension measurement and the mortality was monitored daily. After the treatments, all mice were killed and weighed simultaneously, and then tumor was segregated and weighed.

[2] = system: MCF-7, HeLa and A549 cell lines; assay: Anticancer activities discussed in text (cell line not specified); format: cell-based, human; settings: comparison within series and with positive control
Protocol: According to the data presented in Table 1, it could be concluded that the activity of the tested compounds may be correlated to the variation and modifications of structure.
as §2

Structure (SMILES): COc1cc(OC)nc(NC(=O)CN2CCN(c3ccc(Cl)c(Cl)c3)CC2)n1 [3p, 2-(4-(3,4-dichlorophenyl)piperazin-1-yl)-N-(4,6-dimethoxypyrimidin-2-yl)acetamide]
- IC50 (MCF-7): 0.22 ± 0.001 µM
- IC50 (HeLa): 0.08 ± 0.0002 µM
- IC50 (A549): 0.05 ± 0.0003 µM
- IC50 (Lung cells): 189 ± 3.82 µM
- IC50 (EGFR): 0.02 ± 0.003 µM
- IC50 (VEGFR2): 2.15 ± 0.06 µM
- IC50 (bFGF): 27.1 ± 3.17 µM
- IC50 (PDGFR): 17.3 ± 0.95 µM
- Hemolysis LC30 (lytic concentration 30%) (Erythrocytes): >10000 µg/mL
- IC50 at 24 h (in vitro): 239 ± 4.03 µM
- Bodyweights 0 day ± SD ([1]; day 0): 22.12 ± 1.13 g
- Bodyweights 7 days ± SD ([1]; day 7): 27.33 ± 1.08 g
- Weight of tumor (A549 cells; 40 mg/kg, day 14): significantly reduced
- Test/Control (tumor volume) (A549 cells; day 4): 42.79%
- Test/Control (tumor volume) (A549 cells; day 6): 49.61%
- Test/Control (tumor volume) (A549 cells; day 8): 50.79%
- Test/Control (tumor volume) (A549 cells; day 10): 60.00%
- Test/Control (tumor volume) (A549 cells; day 12): 61.22%
- Effect on mice body weight (A549 cells; 14-day treatment, nude mice): did not observe significant growth inhibition of mice body weight
- Mortality during the treatment (A549 cells; mouse, in vivo): none of the mice died
- Anticancer / antitumor activity (in words) [2]: most potent anticancer activities
